Test results taken from the kinase profiling compilation of Christmann-Franck et al. (2016).

What was measured:
Assay in all cases: KINOMEscan competition binding
Conditions in all cases: compound 10.0 µM; call rule not given here
ADCK4 (human) = ADCK4 (human) (UniProt Q96D53)
BMPR1A (human) = BMPR1A (human) (UniProt P36894)
CAMK1 (human) = CAMK1 (human) (UniProt Q14012)
CAMK1G (human) = CAMK1G (human) (UniProt Q96NX5)
CAMK2D (human) = CAMK2D (human) (UniProt Q13557)
CAMK2G (human) = CAMK2G (human) (UniProt Q13555)
CDC42BPA (human) = CDC42BPA (human) (UniProt Q5VT25)
EPHA6 (human) = EPHA6 (human) (UniProt Q9UF33)
EPHB2 (human) = EPHB2 (human) (UniProt P29323)
EPHB4 (human) = EPHB4 (human) (UniProt P54760)
ERBB2 (human) = ERBB2 (human) (UniProt P04626)
ERBB4 (human) = ERBB4 (human) (UniProt Q15303)
IGF1R (human) = IGF1R (human) (UniProt P08069)
INSR (human) = INSR (human) (UniProt P06213)
INSRR (human) = INSRR (human) (UniProt P14616)
LIMK1 (human) = LIMK1 (human) (UniProt P53667)
MAP3K5 (human) = MAP3K5 (human) (UniProt Q99683)
MAPK1 (human) = MAPK1 (human) (UniProt P28482)
MAPK11 (human) = MAPK11 (human) (UniProt Q15759)
MAPK14 (human) = MAPK14 (human) (UniProt Q16539)
MARK1 (human) = MARK1 (human) (UniProt Q9P0L2)
MARK4 (human) = MARK4 (human) (UniProt Q96L34)
NEK2 (human) = NEK2 (human) (UniProt P51955)
NEK7 (human) = NEK7 (human) (UniProt Q8TDX7)
NTRK1 (human) = NTRK1 (human) (UniProt P04629)
PIM1 (human) = PIM1 (human) (UniProt P11309)
PLK1 (human) = PLK1 (human) (UniProt P53350)
PRKACB (human) = PRKACB (human) (UniProt P22694)
PTK2 (human) = PTK2 (human) (UniProt Q05397)
ROS1 (human) = ROS1 (human) (UniProt P08922)
RPS6KA3 KD1 (human) = RPS6KA3 KD1 (human) (UniProt P51812)
RPS6KA4 KD1 (human) = RPS6KA4 KD1 (human) (UniProt O75676)
RPS6KA5 KD1 (human) = RPS6KA5 KD1 (human) (UniProt O75582)
RPS6KA6 KD1 (human) = RPS6KA6 KD1 (human) (UniProt Q9UK32)
STK32B (human) = STK32B (human) (UniProt Q9NY57)
STK36 (human) = STK36 (human) (UniProt Q9NRP7)
TGFBR1 (human) = TGFBR1 (human) (UniProt P36897)
TLK2 (human) = TLK2 (human) (UniProt Q86UE8)
TYRO3 (human) = TYRO3 (human) (UniProt Q06418)
ZAP70 (human) = ZAP70 (human) (UniProt P43403)

CAMK1G (human), sequence (Q96NX5 whole entry, looked up): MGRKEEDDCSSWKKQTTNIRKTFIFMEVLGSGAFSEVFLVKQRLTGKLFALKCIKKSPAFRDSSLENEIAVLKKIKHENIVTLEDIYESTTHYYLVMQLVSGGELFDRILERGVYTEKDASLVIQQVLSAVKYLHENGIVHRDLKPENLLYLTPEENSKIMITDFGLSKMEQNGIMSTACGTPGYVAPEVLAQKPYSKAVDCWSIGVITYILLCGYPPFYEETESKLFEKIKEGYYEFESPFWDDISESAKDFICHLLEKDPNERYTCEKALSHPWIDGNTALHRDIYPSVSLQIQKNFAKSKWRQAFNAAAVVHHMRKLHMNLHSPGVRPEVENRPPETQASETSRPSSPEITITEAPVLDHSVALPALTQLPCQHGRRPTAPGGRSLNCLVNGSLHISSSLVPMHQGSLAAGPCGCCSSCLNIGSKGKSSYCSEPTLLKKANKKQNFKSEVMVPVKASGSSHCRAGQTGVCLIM
TLK2 (human), sequence (Q86UE8 whole entry, looked up): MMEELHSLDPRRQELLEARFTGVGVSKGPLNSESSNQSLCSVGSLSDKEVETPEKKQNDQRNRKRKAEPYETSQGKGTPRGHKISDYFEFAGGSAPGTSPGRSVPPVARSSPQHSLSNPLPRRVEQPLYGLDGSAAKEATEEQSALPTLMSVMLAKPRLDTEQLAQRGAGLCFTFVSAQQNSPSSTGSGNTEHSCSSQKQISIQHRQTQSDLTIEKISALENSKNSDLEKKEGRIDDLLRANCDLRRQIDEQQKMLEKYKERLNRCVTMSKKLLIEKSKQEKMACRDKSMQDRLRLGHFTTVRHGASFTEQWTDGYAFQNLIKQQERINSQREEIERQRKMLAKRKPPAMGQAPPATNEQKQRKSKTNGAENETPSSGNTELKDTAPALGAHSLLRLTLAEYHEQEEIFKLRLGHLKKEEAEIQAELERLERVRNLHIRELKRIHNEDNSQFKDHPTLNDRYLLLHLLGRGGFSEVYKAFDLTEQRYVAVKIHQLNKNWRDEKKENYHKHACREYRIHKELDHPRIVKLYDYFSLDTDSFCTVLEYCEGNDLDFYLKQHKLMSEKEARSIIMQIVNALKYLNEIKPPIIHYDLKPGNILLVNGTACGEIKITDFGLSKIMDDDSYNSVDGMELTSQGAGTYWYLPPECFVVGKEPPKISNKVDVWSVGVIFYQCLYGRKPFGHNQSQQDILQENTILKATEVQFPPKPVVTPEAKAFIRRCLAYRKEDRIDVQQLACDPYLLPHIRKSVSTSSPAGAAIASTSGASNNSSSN
RPS6KA6 KD1 (human), sequence (Q9UK32 whole entry, looked up): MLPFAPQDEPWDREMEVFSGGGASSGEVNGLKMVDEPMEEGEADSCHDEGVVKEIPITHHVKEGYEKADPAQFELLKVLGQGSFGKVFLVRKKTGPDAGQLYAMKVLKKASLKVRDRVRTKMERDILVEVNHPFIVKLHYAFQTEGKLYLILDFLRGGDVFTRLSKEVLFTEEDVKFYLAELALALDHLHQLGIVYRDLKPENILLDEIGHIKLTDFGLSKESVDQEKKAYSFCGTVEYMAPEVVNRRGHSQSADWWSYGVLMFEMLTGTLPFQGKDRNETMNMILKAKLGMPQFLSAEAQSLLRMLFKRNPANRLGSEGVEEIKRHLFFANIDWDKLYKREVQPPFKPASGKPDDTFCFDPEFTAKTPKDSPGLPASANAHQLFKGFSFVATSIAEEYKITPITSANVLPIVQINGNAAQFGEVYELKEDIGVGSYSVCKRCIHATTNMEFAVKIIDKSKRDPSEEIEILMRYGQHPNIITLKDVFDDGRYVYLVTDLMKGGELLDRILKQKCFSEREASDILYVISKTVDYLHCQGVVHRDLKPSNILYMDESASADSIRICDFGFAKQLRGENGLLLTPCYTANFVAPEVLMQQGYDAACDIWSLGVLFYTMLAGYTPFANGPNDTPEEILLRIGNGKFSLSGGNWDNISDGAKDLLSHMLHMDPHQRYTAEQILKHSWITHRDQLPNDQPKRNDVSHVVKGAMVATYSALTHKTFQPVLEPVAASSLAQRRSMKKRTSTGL
BMPR1A (human), sequence (P36894 whole entry, looked up): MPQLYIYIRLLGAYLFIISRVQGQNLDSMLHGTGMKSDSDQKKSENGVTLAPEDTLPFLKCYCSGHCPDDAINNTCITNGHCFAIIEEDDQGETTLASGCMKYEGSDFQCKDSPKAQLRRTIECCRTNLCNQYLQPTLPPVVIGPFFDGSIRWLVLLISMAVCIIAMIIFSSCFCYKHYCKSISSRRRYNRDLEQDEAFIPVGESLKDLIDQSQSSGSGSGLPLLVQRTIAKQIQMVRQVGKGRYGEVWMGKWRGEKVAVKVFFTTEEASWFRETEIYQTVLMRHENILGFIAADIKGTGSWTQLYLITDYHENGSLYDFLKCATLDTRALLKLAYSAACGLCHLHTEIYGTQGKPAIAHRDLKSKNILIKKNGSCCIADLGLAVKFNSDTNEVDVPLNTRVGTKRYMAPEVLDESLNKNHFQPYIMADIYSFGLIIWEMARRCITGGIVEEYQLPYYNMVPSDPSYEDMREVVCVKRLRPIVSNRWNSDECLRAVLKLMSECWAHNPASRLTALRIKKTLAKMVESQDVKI
CAMK2D (human), sequence (Q13557 whole entry, looked up): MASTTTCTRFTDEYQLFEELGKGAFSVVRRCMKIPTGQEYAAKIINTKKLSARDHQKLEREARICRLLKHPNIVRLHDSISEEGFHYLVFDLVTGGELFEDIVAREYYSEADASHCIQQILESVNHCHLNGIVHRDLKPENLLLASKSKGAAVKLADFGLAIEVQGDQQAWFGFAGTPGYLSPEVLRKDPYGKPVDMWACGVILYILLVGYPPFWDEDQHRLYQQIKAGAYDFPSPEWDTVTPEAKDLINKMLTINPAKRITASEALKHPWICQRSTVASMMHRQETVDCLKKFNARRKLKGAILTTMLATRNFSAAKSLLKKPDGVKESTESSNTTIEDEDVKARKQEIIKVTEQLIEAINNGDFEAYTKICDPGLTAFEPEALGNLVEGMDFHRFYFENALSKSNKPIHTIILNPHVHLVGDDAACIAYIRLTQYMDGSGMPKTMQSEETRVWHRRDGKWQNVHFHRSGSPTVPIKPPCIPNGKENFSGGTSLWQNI
IGF1R (human), sequence (P08069 whole entry, looked up): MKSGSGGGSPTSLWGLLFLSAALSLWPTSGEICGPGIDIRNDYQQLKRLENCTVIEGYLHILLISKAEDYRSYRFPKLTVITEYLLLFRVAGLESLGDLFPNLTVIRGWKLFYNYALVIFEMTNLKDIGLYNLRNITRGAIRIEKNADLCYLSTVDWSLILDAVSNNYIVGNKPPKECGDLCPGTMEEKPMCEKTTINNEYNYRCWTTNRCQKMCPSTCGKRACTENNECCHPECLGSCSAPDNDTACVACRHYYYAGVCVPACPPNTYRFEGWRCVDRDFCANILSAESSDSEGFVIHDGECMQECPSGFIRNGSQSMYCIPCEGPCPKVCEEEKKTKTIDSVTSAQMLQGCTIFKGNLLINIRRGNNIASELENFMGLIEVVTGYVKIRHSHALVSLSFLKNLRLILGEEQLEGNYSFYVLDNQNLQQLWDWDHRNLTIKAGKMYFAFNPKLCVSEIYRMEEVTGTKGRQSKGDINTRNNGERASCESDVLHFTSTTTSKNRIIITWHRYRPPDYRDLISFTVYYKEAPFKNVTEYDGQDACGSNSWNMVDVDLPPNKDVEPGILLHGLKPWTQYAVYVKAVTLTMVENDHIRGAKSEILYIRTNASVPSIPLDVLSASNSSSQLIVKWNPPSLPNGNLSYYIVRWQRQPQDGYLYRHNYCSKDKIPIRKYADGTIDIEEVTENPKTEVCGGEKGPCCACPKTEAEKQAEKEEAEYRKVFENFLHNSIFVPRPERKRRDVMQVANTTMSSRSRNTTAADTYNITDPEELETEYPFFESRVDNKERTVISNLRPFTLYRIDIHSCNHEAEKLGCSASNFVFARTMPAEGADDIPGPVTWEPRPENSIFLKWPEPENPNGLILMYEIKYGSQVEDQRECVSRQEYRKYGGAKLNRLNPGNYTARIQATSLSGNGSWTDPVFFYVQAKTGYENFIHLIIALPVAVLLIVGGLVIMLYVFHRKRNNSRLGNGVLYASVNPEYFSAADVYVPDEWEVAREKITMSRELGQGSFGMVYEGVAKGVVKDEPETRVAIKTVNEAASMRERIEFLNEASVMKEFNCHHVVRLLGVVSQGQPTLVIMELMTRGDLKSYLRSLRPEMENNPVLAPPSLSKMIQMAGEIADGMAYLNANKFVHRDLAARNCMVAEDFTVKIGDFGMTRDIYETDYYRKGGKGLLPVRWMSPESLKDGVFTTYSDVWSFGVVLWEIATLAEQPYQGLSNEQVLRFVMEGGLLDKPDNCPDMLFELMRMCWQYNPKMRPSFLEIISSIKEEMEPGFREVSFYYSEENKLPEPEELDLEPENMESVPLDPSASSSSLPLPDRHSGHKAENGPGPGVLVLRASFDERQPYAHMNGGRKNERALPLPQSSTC
NEK2 (human), sequence (P51955 whole entry, looked up): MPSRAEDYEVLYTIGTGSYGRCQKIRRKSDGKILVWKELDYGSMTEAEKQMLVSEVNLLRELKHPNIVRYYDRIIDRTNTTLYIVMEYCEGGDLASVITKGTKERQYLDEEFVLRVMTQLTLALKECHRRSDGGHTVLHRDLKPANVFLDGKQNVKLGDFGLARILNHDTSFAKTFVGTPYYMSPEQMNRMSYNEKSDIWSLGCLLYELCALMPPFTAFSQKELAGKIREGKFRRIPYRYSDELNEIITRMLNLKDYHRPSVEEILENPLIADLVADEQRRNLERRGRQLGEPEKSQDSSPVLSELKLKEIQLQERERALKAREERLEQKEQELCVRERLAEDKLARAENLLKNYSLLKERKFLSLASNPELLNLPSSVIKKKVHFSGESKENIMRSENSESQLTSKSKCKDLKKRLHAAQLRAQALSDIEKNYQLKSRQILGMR

CCS(=O)(=O)Nc1ccc2c(c1)[C@H](/C(=N/c1ccc(CN3CCCCC3)cc1)c1ccccc1)C(=O)N2
kinase still bound, per cent of control (ADCK4 (human)): no effect (inactive) | kinase still bound, per cent of control (BMPR1A (human)): 4.35% | kinase still bound, per cent of control (CAMK1 (human)): 8.3% | kinase still bound, per cent of control (CAMK1G (human)): no effect (inactive) | kinase still bound, per cent of control (CAMK2D (human)): 2% | kinase still bound, per cent of control (CAMK2G (human)): 0.2% | kinase still bound, per cent of control (CDC42BPA (human)): no effect (inactive) | kinase still bound, per cent of control (EPHA6 (human)): 0% | kinase still bound, per cent of control (EPHB2 (human)): 0.15% | kinase still bound, per cent of control (EPHB4 (human)): 0.7% | kinase still bound, per cent of control (ERBB2 (human)): no effect (inactive) | kinase still bound, per cent of control (ERBB4 (human)): 34.7% | kinase still bound, per cent of control (IGF1R (human)): 0% | kinase still bound, per cent of control (INSR (human)): 0% | kinase still bound, per cent of control (INSRR (human)): 0% | kinase still bound, per cent of control (LIMK1 (human)): no effect (inactive) | kinase still bound, per cent of control (MAP3K5 (human)): 1.4% | kinase still bound, per cent of control (MAPK1 (human)): 14% | kinase still bound, per cent of control (MAPK11 (human)): no effect (inactive) | kinase still bound, per cent of control (MAPK14 (human)): no effect (inactive) | kinase still bound, per cent of control (MARK1 (human)): 0% | kinase still bound, per cent of control (MARK4 (human)): 0% | kinase still bound, per cent of control (NEK2 (human)): 0% | kinase still bound, per cent of control (NEK7 (human)): no effect (inactive) | kinase still bound, per cent of control (NTRK1 (human)): 0% | kinase still bound, per cent of control (PIM1 (human)): 12.8% | kinase still bound, per cent of control (PLK1 (human)): 1.55% | kinase still bound, per cent of control (PRKACB (human)): 7% | kinase still bound, per cent of control (PTK2 (human)): 0% | kinase still bound, per cent of control (ROS1 (human)): 0% | kinase still bound, per cent of control (RPS6KA3 KD1 (human)): 0% | kinase still bound, per cent of control (RPS6KA4 KD1 (human)): 0% | kinase still bound, per cent of control (RPS6KA5 KD1 (human)): 0% | kinase still bound, per cent of control (RPS6KA6 KD1 (human)): 0% | kinase still bound, per cent of control (STK32B (human)): 15.4% | kinase still bound, per cent of control (STK36 (human)): no effect (inactive) | kinase still bound, per cent of control (TGFBR1 (human)): 0% | kinase still bound, per cent of control (TLK2 (human)): 1.5% | kinase still bound, per cent of control (TYRO3 (human)): 0.2% | kinase still bound, per cent of control (ZAP70 (human)): no effect (inactive)

c1ccc(-c2n[nH]cc2-c2ccnc3ccccc23)nc1
kinase still bound, per cent of control (ADCK4 (human)): no effect (inactive) | kinase still bound, per cent of control (BMPR1A (human)): no effect (inactive) | kinase still bound, per cent of control (CAMK1 (human)): no effect (inactive) | kinase still bound, per cent of control (CAMK1G (human)): no effect (inactive) | kinase still bound, per cent of control (CAMK2D (human)): no effect (inactive) | kinase still bound, per cent of control (CAMK2G (human)): no effect (inactive) | kinase still bound, per cent of control (CDC42BPA (human)): no effect (inactive) | kinase still bound, per cent of control (EPHA6 (human)): no effect (inactive) | kinase still bound, per cent of control (EPHB2 (human)): no effect (inactive) | kinase still bound, per cent of control (EPHB4 (human)): no effect (inactive) | kinase still bound, per cent of control (ERBB2 (human)): no effect (inactive) | kinase still bound, per cent of control (ERBB4 (human)): no effect (inactive) | kinase still bound, per cent of control (IGF1R (human)): no effect (inactive) | kinase still bound, per cent of control (INSR (human)): no effect (inactive) | kinase still bound, per cent of control (INSRR (human)): no effect (inactive) | kinase still bound, per cent of control (LIMK1 (human)): no effect (inactive) | kinase still bound, per cent of control (MAP3K5 (human)): no effect (inactive) | kinase still bound, per cent of control (MAPK1 (human)): no effect (inactive) | kinase still bound, per cent of control (MAPK11 (human)): no effect (inactive) | kinase still bound, per cent of control (MAPK14 (human)): no effect (inactive) | kinase still bound, per cent of control (MARK1 (human)): no effect (inactive) | kinase still bound, per cent of control (MARK4 (human)): no effect (inactive) | kinase still bound, per cent of control (NEK2 (human)): no effect (inactive) | kinase still bound, per cent of control (NEK7 (human)): no effect (inactive) | kinase still bound, per cent of control (NTRK1 (human)): no effect (inactive) | kinase still bound, per cent of control (PIM1 (human)): no effect (inactive) | kinase still bound, per cent of control (PLK1 (human)): no effect (inactive) | kinase still bound, per cent of control (PRKACB (human)): no effect (inactive) | kinase still bound, per cent of control (PTK2 (human)): no effect (inactive) | kinase still bound, per cent of control (ROS1 (human)): no effect (inactive) | kinase still bound, per cent of control (RPS6KA3 KD1 (human)): no effect (inactive) | kinase still bound, per cent of control (RPS6KA4 KD1 (human)): no effect (inactive) | kinase still bound, per cent of control (RPS6KA5 KD1 (human)): no effect (inactive) | kinase still bound, per cent of control (RPS6KA6 KD1 (human)): no effect (inactive) | kinase still bound, per cent of control (STK32B (human)): no effect (inactive) | kinase still bound, per cent of control (STK36 (human)): no effect (inactive) | kinase still bound, per cent of control (TGFBR1 (human)): 0% | kinase still bound, per cent of control (TLK2 (human)): no effect (inactive) | kinase still bound, per cent of control (TYRO3 (human)): no effect (inactive) | kinase still bound, per cent of control (ZAP70 (human)): no effect (inactive)
